Two compounds from patent US20250002463A1, “NEW SALT FORMS OF AMILORIDE AND ITS DERIVATIVES FOR PHARMACEUTICAL USE” (PSOMRI Holding AB, priority 2021, published 2025) can be followed below.

Some results are limits rather than exact numbers.

The term solubility denotes the concentration that dissolves in the medium under given conditions. High values mean much dissolved substance, low ones little dissolved substance.

Series [1] in a line: Thermal stability of benzamil in solution (UPLC MS). The format is physicochemical. The following applies: ethanol, ~0.5 mg/mL, 1 h. How it is done: The thermal stability of benzamil was evaluated in three solvent systems: acetonitrile:water 1:1, ethanol, and 0.1 M HCl. Solutions of benzamil (˜0.5 mg/mL) were prepared in the selected solvents and split over 3 vials. The solutions were stirred at room temperature, 50° C. and 80° C. for one hour and then analyzed by UPLC MS. The chemical purity of benzamil measured in the solutions incubated at 50° C. and 80° C. for 1 h was compared to that measured initially in the starting solutions.

A short description of series [2]: Qualitative solubility of benzamil free base in solvents (aliquot addition). The format is physicochemical.
A short description of series [3]: Polymorphism: solid forms found in salt screen by HT-XRPD. The format is physicochemical. The following applies: Example 1 salt screen in MeOH, DME, THF. The method, then: The precipitated solids were analyzed by high throughput X-ray powder diffractometry (HT XRPD). Liquid phases (both solutions and mother liquors) were evaporated at ambient conditions and the residual solids were analyzed by HT XRPD.
The salt screen experiments were carried out in methanol (MeOH), 1,2-dimethoxyethane (DME) and tetrahydrofuran (THF).

Series [4] in a line: physchem. How it is done: The aqueous solubility of the salts was estimated qualitatively by the solvent aliquot addition method. Aliquots of water up to 500-600 μL were added to approximately 5 mg of salt. The solubility of the free base was also estimated.
The suspensions were let equilibrating at room temperature for 24 h. Afterwards, solids were separated from the liquid phases. The liquid phases were filtered and analyzed by HPLC to determine the solubility. The pH of solutions/mother liquors was also measured.
Suspensions of the two salts were prepared in water with a concentration of 9-10 mg/mL. The mixtures were let equilibrating at RT for 24 h. Afterwards, solids were separated from the liquid phases. The liquid phases were filtered and analyzed by HPLC to determine the solubility. The pH of mother liquors was also measured.

Series [5] can be described thus: Hygroscopicity by Dynamic Vapor Sorption (DVS). Type of series: physicochemical. The method, then:
The hygroscopic behaviour of the salts was evaluated through Dynamic Vapor Sorption (DVS) measurements with an RH profile 40-95-0-40% at 25° C. and a dm/dt of 0.002. The classification of the hygroscopic behaviour is based on the water vapour uptake at 25° C./80% RH in first adsorption cycle of sorption isotherm.

Series [6] can be described thus: Physical stability under Accelerated Aging Conditions (AAC, 40° C./75% RH, 2 days), HT-XRPD. The following applies: Example 1; 40° C./75% RH for 2 days.
Protocol: The solids were separated from the liquid phases by centrifugation, dried overnight under vacuum at 50° C. and analyzed by HT-XRPD. Solvents from the remaining mother liquors and solutions were evaporated under ambient conditions (evaporative crystallization experiments) and the residual solids were analyzed by HT-XRPD.
Slurries of the amorphous solids (GEN9 and GEN16, respectively) were prepared in 15 solvents at room temperature. The suspensions were subjected to a temperature profile, which comprised of three heating and cooling cycles. At the end of the temperature profile, the solids were isolated by centrifugation and dried at ambient conditions and under vacuum at 50° C. Upon completion of all crystallization experiments, all solids were analyzed by HT-XRPD.

As for `NC(=NCc1ccccc1)NC(=O)c1nc(Cl)c(N)nc1N` [Benzamil free base, 3,5-diamino-N—(N′-benzylcarbamimidoyl)-6-chloropyrazine-2-carboxamide], the “chemical stability in solution” value in series [1] (50° C.) is given as “stable”; in series [1] (80° C.), “some chemical degradation was observed”. The qualitative solubility result in series [2] (1,2-dimethoxyethane) is “slightly soluble”; in series [2] (methanol), “slightly soluble”; in series [2] (most of the tested solvents (ethanol, water, 1,4-dioxane, acetonitrile, TBME, heptane, ethylacetate, THF), approximately 3 mg/mL) it was “insoluble”. The “effect of temperature on solubility” value in series [2] (THF suspension, 50° C. for 30 min) is on record as “slightly improved the solubility”. Further, in series [3], the Polymorphism result is “Yes”. Besides, the Water solubility result in series [4] is “practically insoluble”. The compound also had a solubility at 24 h in series [4] (water, thermodynamic from solid) of less than 100 µg/mL.
For `CC(=O)O.NC(=NC(=O)c1nc(Cl)c(N)nc1N)NCc1ccccc1` [ACA1], in series [3], the Polymorphism result is reported as “Yes”. The Water solubility in series [4] (Example 1, RT, aliquot addition (ranges) or HPLC after 24 h, not in Table 3) is 15000 to 19000 µg/mL. In series [5] (25° C./80% RH, first adsorption cycle), the water vapour uptake worked out at 0.1%. In series [5] (based on water vapour uptake at 25° C./80% RH), the “classification of hygroscopic behaviour” value is listed as “non hygroscopic”. Besides, in series [6], the “Physically stable after AAC” value was “physically stable and Yes”.
